Results from patent US8338624B2, “Isoflavone derivatives and uses thereof” (Yeda Research and Development Co., Ltd., priority 2007, dated 2012).

Tests used:
[1] = tested on: 320DM human colon cancer cells; test: DNA synthesis by [3H]-thymidine incorporation, 320DM cells; assay type: cell-based
Procedure: (§1) Cells were cultured in MEM supplemented with 10% FCS and antibiotics. Cells were grown to subconfluence and then treated with various hormones or agents as described by Somjen et al. (Somjen et al., 1998). The cells were characterized in terms of expression of mRNAs for estrogen […] by real time PCR, and the results are summarized in Table 1. N87, 320DM and H295R cells expressed mRNAs for both ERs. The ratio of ERα to ERβ was 1:8.5, 1:30 and 1:1.8 in N87, 320DM and H295R cells, respectively. Ovarian A2780 and prostate C4-24 cells expressed mainly mRNA for ERβ, and the ratio of ERβ to ERα was 300:1 and 70:1, respectively. MLS ovarian cells expressed mRNA only for ERβ. The ratio of ERα to ERβ in T47D cells has been reported to be 9:1.
[^3H]-Thymidine incorporation into DNA was used for the assessment of the various effects (proliferative or inhibitory) of various isoflavones, isoflavone derivatives and known cytotoxic drugs in the above-mentioned cells. Cells were grown until subconfluence using conditions described in Somjen et al. […] At the end of incubation, [^3H]-thymidine was added for two hours. Cells were then treated with 10% ice-cold trichloroacetic (TCA) for 5 min and washed twice with 5% TCA and then with cold ethanol. The cellular layer was dissolved in 0.3 ml of 0.3 M NaOH, aliquots were taken for counting radioactivity, and [^3H]-thymidine incorporation into DNA was calculated.

MLS ovarian cancer cells = test: DNA synthesis by [3H]-thymidine incorporation, MLS cells; assay type: cell-based, human
Procedure: as §1
(§2) [^3H]-Thymidine incorporation into DNA was used for the assessment of the various effects (proliferative or inhibitory) of various isoflavones, isoflavone derivatives and known cytotoxic drugs in the above-mentioned cells. Cells were grown until subconfluence using conditions described in Somjen et al. (Somjen et al., 1998) and then treated with various agents for 24 or 48 h as indicated. At the end of incubation, [^3H]-thymidine was added for two hours. Cells were then treated with 10% ice-cold trichloroacetic (TCA) for 5 min and washed twice with 5% TCA and then with cold ethanol. The cellular layer was dissolved in 0.3 ml of 0.3 M NaOH, aliquots were taken for counting radioactivity, and [^3H]-thymidine incorporation into DNA was calculated.

[2] = tested on: A2780 ovarian cancer cells; test: DNA synthesis by [3H]-thymidine incorporation, A2780 cells; assay type: cell-based, human; settings: compound at 3 μM
Procedure: as §1, §2

[3] = tested on: Human umbilical vascular smooth muscle cells (VSMC); test: DNA synthesis by [3H]-thymidine incorporation, normal VSMC; assay type: cell-based; settings: compound at 3 μM
Procedure: Human umbilical vascular smooth muscle cells (VSMC) sensitive to estrogen, were grown in culture as described above, and used only at passages 1-3, when expression of smooth muscle actin was clearly demonstrable (Somjen et al. 2000). The ratio of the expression of mRNA for ERα to ERβ was 2.7:1.
as §2

[4] = tested on: MDA-MB-435 breast cancer cell line; test: NCI In Vitro Cell Line Screening, MDA-MB-435; assay type: cell-based; settings: Homo sapiens, read-out: log10 GI50 (converted)
Procedure: (§3) An in vitro cell line screen for the t-boc derivative of daidzein (compound 9) was performed at the NCI/NIH US utilizing the In Vitro Cell Line Screening Project (IVCLSP) (National Cancer Institute, Developmental Therapeutics Program, Information Technology Branch, Rockville, Md., USA).
(§4) The operation of this screen utilized 60 different human tumor cell lines, representing leukemia, melanoma and cancers of the lung, colon, brain, ovary, breast, prostate, and kidney. […] Using these algorithms, it is possible to assign a putative mechanism of action to a test compound, or to determine that the response pattern is unique and not similar to that of any of the standard prototype compounds included in the NCI database.
(§5) To facilitate analysis of the data, three endpoints were calculated for each cell line: The GI50 value, which is the negative log10 of the concentration required to inhibit the growth of that cell line by 50% (relative to untreated cells); TGI, the negative log10 of minimum concentration that causes total growth inhibition; and LC50, which reflects the negative log10 concentration needed to kill 50% of the cells. A Mean Graph was used as a way of easily visualizing the results from all 60 cell lines at once. To generate this graph, the mean of GI50 values across all 60 cell lines was calculated. […]

[5] = tested on: SK-MEL-5 melanoma cell line; test: NCI In Vitro Cell Line Screening, SK-MEL-5; assay type: cell-based; settings: Homo sapiens, read-out: log10 GI50 (converted)
Procedure: as §3, §4, §5

MLS ovarian xenografts = MLS ovarian xenografts in nude mice; assay type: in vivo; settings: 9 iv 400 μg/mouse every other day
Description: Female CD1 nude mice (8-week old, ˜30 g) were housed and handled with free access to food and water in the animal facility according to the guidelines (1996) of the Institutional Animal Care and Use Committee of the Weizmann Institute of Science, Rehovot, Israel.
Thirty female nude mice (8 weeks old) were inoculated sub-cutaneously (sc) with MLS ovarian carcinoma cells (1.5×10^6/mouse). Ten days later, when the tumors were palpable, the mice were randomly divided into 3 groups (8-10 mice/group). The mice in each group were iv injected every other day either with a vehicle (Neowater, a solubilization enhancer, 0.1 ml), daunomycin dissolved in Neowater (200 μg/mouse in 0.1 ml vehicle, total dose during treatment 1 mg/mouse), or compound 9 dissolved in Neowater (400 μg/mouse in 0.1 ml vehicle, total dose during treatment 2 mg/mouse). During treatment, body weight was recorded to monitor toxicity of the treatment, and the tumors were measured with an external caliper. Tumor volume was calculated using the formula length×width×height×π/6. Statistical significance was assessed using student's t test, and differences were considered significant at p<0.05.

[6] = Homo sapiens, 9 at 0.3 μM alone
[7] = estradiol 30 nM + 0.3 μM compound 9

CC(C)(C)OC(=O)NCCCCCCNC(=O)COc1ccc2c(=O)c(-c3ccc(O)cc3)coc2c1 [Compound 9]
incubation time at which plateau of inhibition of DNA synthesis was reached [1]: 72 h
DNA synthesis, ratio experimental/control (E/C) ([1]; 9 (0.3 μM) + E2 30 nM): 1.08 ± 0.16
DNA synthesis, ratio experimental/control (E/C) ([1]; 9 (0.3 μM) + E2 0.3 μM): 1.90 ± 0.05
anti-proliferative effect in presence of apoptosis inhibitor ([1]; 9 at 0.3 μM + Z-VADFK): the anti-proliferative effect of 9 was not discernible
DNA synthesis, ratio experimental/control (E/C) ([1]; 9 at 0.3 μM + Z-VADFK (25 μM)): 1.18 ± 0.14
suppression of the proliferative effect of estradiol ([1]; 9 at 0.3 μM + estradiol 300 nM): could not suppress its proliferative effect
DNA synthesis, ratio experimental/control (E/C) ([1]; 9 at 0.3 μM alone (Table 3)): 0.63 ± 0.11
DNA synthesis, ratio experimental/control (E/C) ([1]; 9 at 0.3 μM alone (Table 4)): 0.68 ± 0.14
DNA synthesis, ratio experimental/control (E/C) ([1]; 9 at 3 μM + Z-VADFK (25 μM)): 0.5 ± 0.11
DNA synthesis, ratio experimental/control (E/C) ([1]; 9 at 3 μM alone (Table 4)): 0.04 ± 0.22
effect on [3H]-thymidine incorporation into DNA ([1]; 15 to 6000 nM): dose dependent decreases
inhibition at 0.3 µM [1, 6]: 32%
inhibition at 3 µM ([1]; Homo sapiens, 9 at 3 μM alone): ≤ 96%
DNA synthesis, ratio experimental/control (E/C) ([1]; compound at 3 μM): 0.08 ± 0.01
DNA synthesis (% of control) [1, 7]: 100%
incubation time at which plateau of inhibition of DNA synthesis was reached (MLS ovarian cancer cells): 72 h
DNA synthesis, ratio experimental/control (E/C) (MLS ovarian cancer cells; 9 (0.3 μM) + E2 30 nM): 0.96 ± 0.24
DNA synthesis, ratio experimental/control (E/C) (MLS ovarian cancer cells; 9 (0.3 μM) + E2 0.3 μM): 2.39 ± 0.07
DNA synthesis (% of control) (MLS ovarian cancer cells; 9 at 0.3 μM + 25 μM Z-VADFK): 132%
DNA synthesis, ratio experimental/control (E/C) (MLS ovarian cancer cells; 9 at 0.3 μM + Z-VADFK (25 μM)): 1.32 ± 0.26
suppression of the proliferative effect of estradiol (MLS ovarian cancer cells; 9 at 0.3 μM + estradiol 0.3 μM): could not suppress its proliferative effect
DNA synthesis, ratio experimental/control (E/C) (MLS ovarian cancer cells; 9 at 0.3 μM alone (Table 3)): 0.61 ± 0.10
DNA synthesis, ratio experimental/control (E/C) (MLS ovarian cancer cells; 9 at 0.3 μM alone (Table 4)): 0.74 ± 0.11
DNA synthesis, ratio experimental/control (E/C) (MLS ovarian cancer cells; 9 at 3 μM + Z-VADFK 25 μM): 0.76 ± 0.16
effect of apoptosis inhibitor on inhibition by 9 (MLS ovarian cancer cells; 9 at 3 μM + Z-VADFK 25 μM): capable of reversing the inhibitory effect of 9 on DNA synthesis
DNA synthesis, ratio experimental/control (E/C) (MLS ovarian cancer cells; 9 at 3 μM alone (Table 4)): 0.44 ± 0.14
effect on [3H]-thymidine incorporation into DNA (MLS ovarian cancer cells; 15 to 6000 nmol/l): dose dependent decreases
inhibition at 0.3 µM (MLS ovarian cancer cells; [6]): 26%
inhibition at 3 µM (MLS ovarian cancer cells; Homo sapiens, 9 at 3 μM alone): 56%
DNA synthesis, ratio experimental/control (E/C) (MLS ovarian cancer cells; compound at 3 μM): 0.03 ± 0.07
DNA synthesis (% of control) (MLS ovarian cancer cells; [7]): 96%
DNA synthesis, ratio experimental/control (E/C) [2]: 0.1 ± 0.15
DNA synthesis, ratio experimental/control (E/C) [3]: 0.73 ± 0.13
GI50 [4]: 1.82 µM
GI50 [5]: 0.631 µM
weight reduction or death of treated mice (MLS ovarian xenografts): No weight reduction or death
weight reduction or death of treated mice (MLS ovarian xenografts; listed as t-Boc daidzein derivative): did not cause death or weight loss
